The values that follow are results of earlier work, collected in patent US20100035992A1, “Methods and Compositions for Treating Inflammation and Inflammation-Related Pathologies” (priority 2008, published 2010).

The conditions of this data set: at 79° F.

Turning to `CS(C)(=O)=O` [MSM, methylsulfonylmethane], the water solubility is 34 % w/v.
